Results: patent US20100080785A1, “DRIED FORMULATIONS” (Zymes, LLC, priority 2008, published 2010)

Tests used:
[1] = stability of the solution on heating to 50-55° C.; assay type: physicochemical
[2] = stability and shelf life at ambient conditions; assay type: physicochemical; details: ubiquinol
From the text: By contrast, the dry formulations of ubiquinol disclosed herein remains white for weeks at ambient conditions.
By contrast, the dry formulations of omega-3 fatty acid disclosed herein remains odorless for weeks at ambient conditions.

Row | Compound | degradation on heating without pH adjustment [1] | oxidation / colour on storage [2]
1 | polyoxyethanyl tocopheryl sebacate [PTS] | decomposes and undergoes hydrolysis | 
2 | COc1c(O)c(C)c(C/C=C(\C)CC/C=C(\C)CC/C=C(\C)CC/C=C(\C)CC/C=C(\C)CC/C=C(\C)CC/C=C(\C)CC/C=C(\C)CC/C=C(\C)CCC=C(C)C)c(O)c1OC [bulk ubiquinol, ubiquinol] |  | gradually oxidizes and develops a yellow hue
